Assay results from patent US20150190416A1, “FILAGGRIN PRODUCTION PROMOTER, THERAPEUTIC AGENT FOR DISEASES ASSOCIATED WITH REDUCTION IN PRODUCTION OF FILAGGRIN, AND METHOD FOR SCREENING FOR SAID THERAPEUTIC AGENT” (KYOTO UNIVERSITY, priority 2012, published 2015).

Tests used:
[1] = system: GPR22 mRNA; test: GPR22 mRNA expression in NHEK cells, real-time PCR (Example 4); assay type: cell-based, human; settings: Compound 1 1 μM, 3 days
Procedure: (§1) In this example, the expression-inducing effects of Compound 1 on GPR142 mRNA and GPR22 mRNA in NHEK cells were confirmed.
(§2) 1) 5×10^4 cells/well of NHEK cells (Invitrogen) were plated on a 24-well plate. Then, 500 μl of a culture medium containing a medium for proliferating normal human epidermal keratinocytes (HuMedia-KG2, KURABO INDUSTRIES LTD.) supplemented with hEGF (0.1 ng/ml), insulin (10 μg/ml), hydrocortisone (0.5 μg/ml), gentamycin (50 μg/ml), amphotericin B (50 ng/ml), and bovine brain pituitary extract (BPE) (0.4%, v/v) were added to the plate, and the cells were cultured under the conditions of 37° C. and 5% CO2.
(§3) 2) After culture under the conditions of the step 1) for 1 day, the medium was exchanged for the culture medium of the step 1) to which a DMSO solution of Compound 1 was added at 1 μM per well every day and the culture was conducted for 3 days. […]
(§4) 3) An extraction reagent (TRIzol™, Invitrogen) was used, and according to the manufacturer's protocol, total RNA was extracted from each of cells treated with the medicament. […] Next, real-time PCR was conducted by using the following primers and SYBR™ Premix Ex Taq (Takara) with a CFX96 real-time PCR instrument according to the manufacturer's protocol, and the amounts of GPR142mRNA and GPR22mRNA expression were measured. […]

[2] = system: GPR22; test: Blocking effect by GPR22 RNAi in NHEK cells (Reference Example 1); assay type: cell-based, human; settings: calcium priming, siRNA 10 nM, Compound 1 10 nM, 1 day
Procedure: as §2
2) 1 day after the step 1), the medium was exchanged for the medium supplemented with calcium every day, and culture was conducted for 2 days (priming).
3) The NHEK cells of the step 2) were transfected with 10 nM of siRNA per well of the 24-well plate by using a transfection reagent, Lipofectamine RNA Max (Invitrogen) according to the manufacturer's protocol.
4) After culture for 1 day after the step 3), the medium was exchanged for a medium to which Compound 1 dissolved in DMSO was added at 10 nM per well on the 24-well plate, and culture was conducted for 1 day. As a control example, a solvent only (vehicle) was added.
5) An extraction reagent (TRIzol™, Invitrogen) was used, and according to the manufacturer's protocol, total RNA was extracted from each of cells treated with the medicament. A reverse transcriptase reagent (Prime Script™, Takara) was used, and according to the manufacturer's protocol, cDNA was prepared from the total RNA. Real-time PCR was conducted by using SYBR™ Premix Ex Taq (Takara) with a CFX96 real-time PCR instrument according to the manufacturer's protocol, and the amounts of GPR22 mRNA and FLG mRNA were measured. The results of measurement are shown as a GAPDH ratio.

[3] = system: atopic dermatitis mouse model (NC/Nga); test: Dermatitis-alleviating effect in atopic dermatitis mouse model (NC/Nga) (Example 14); assay type: in vivo
Procedure: Experiments were conducted with raising 6- to 10-week-old atopic dermatitis-developing NC/Nga mice with mites (Japan SLC, Inc.) under a normal environment. Namely, the dermatitis-alleviating effect was measured by the oral administration of 500 μl of a solution obtained by dissolving Compound 1 at 0.75 mg/ml in a methyl cellulose solution (0.5 W/V % Methyl Cellulose 400 Solution, Wako, 133-14255) to an NC/Nga mouse developing dermatitis majorly in the ear auricles and the head (0.375 mg of Compound 1 was administered to the mouse per time) every other day. As a control, 500 μl of the methylcellulose solution were administered orally every other day.
With regard to clinical manifestations, the evaluation was conducted on a four-point scale of none (0), weak (1), moderate (2), and severe (3) by visual inspection for four items of erythema, edema, erosion, and squama. The evaluated values of the four items were summed to give a score before the start of oral administration (0 wk), 4 weeks after the oral administration (4 wk), and 8 weeks after the oral administration (8 wk), and then the clinical manifestations of a mouse model were measured as a clinical score. Further, the oral administration was ended 8 weeks after the start of oral administration, and thereafter, the mouse was continued to be kept under the same conditions. 4 weeks after the end of oral administration (12 wk after the start of oral administration), clinical manifestations were scored in the same manner.
A TEWL was measured 8 and 12 weeks after the start of oral administration in the above-mentioned section (i) using a tape type closed chamber system water transpiration measuring instrument VAPO SCAN AS-VT100RS (ASAHI BIOMED) according to the manufacturer's manual.
The appearances of the developing NC/Nga mice 12 weeks after the start of oral administration (the oral administration was ended 8 weeks after the start of oral administration) in (i) described above were shown in FIGS. 16(a) and 16(b).

[4] = system: GPR142 mRNA; test: GPR142 mRNA expression in NHEK cells, real-time PCR (Example 4); assay type: cell-based, human; settings: Compound 1 1 μM, Ca 1.2 mM, 3 days, compared to the control
Procedure: as §1, §2, §3, §4

With CCc1ccc(OCc2ccccc2C(=O)Nc2ccc3nc(C)cc(N)c3c2)cc1.Cl [Compound 1, N-(4-Amino-2-methyl-6-quinolyl)-2-[(4-ethylphenoxy)methyl]benzamide hydrochloride] the “GPR22 mRNA expression (GAPDH ratio)” value [1] was “induced GPR22 mRNA expression”, the “FLG mRNA expression in the presence of GPR22 siRNA” value [2] was “not suppressed” and the “GPR22 mRNA expression in the presence of GPR22 siRNA” value [2] was “suppressed by GPR22 siRNA”. The “appearance of developing NC/Nga mouse” value ([3]; 12 weeks after start of oral administration, 4 weeks after the end) was “almost good clinical manifestations were kept”, the “amount of water transpiration (TEWL)” value ([3]; NC/Nga mouse, 4 weeks after the end of oral administration (12 weeks after the start)) was “suppressed as compared to the control” and the “clinical manifestations of dermatitis (clinical score)” value ([3]; NC/Nga mouse, 4 weeks after the end of oral administration (12 wk after the start)) was “symptoms of dermatitis were suppressed as compared to the control”. The “clinical manifestations of dermatitis (clinical score)” value ([3]; NC/Nga mouse, oral 0.375 mg every other day, 8 weeks after the start of oral administration) was “symptoms of dermatitis were alleviated”, the “transepidermal water loss (TEWL)” value ([3]; developing NC/Nga mouse, oral 0.375 mg every other day, after 8 weeks, control about 60) was “about 10 g/h·m^2” and the “GPR142 mRNA expression (GAPDH ratio)” value [4] was “GPR142 mRNA expression was induced”.
